Laboratory results published in ChEMBL document CHEMBL3421577, “Discovery and biological evaluation of tetrahydrothieno[2,3-c]pyridine derivatives as selective metabotropic glutamate receptor 1 antagonists for the potential treatment of neuropathic pain” (Eur J Med Chem, 2015).

Tests used:
[1] = AUC (0 to infinity) in Sprague-Dawley rat at 10 mg/kg, po by LC-MS/MS analysis; type: ADME, organism-based; design: time infinity, dose 10 mg/kg, route oral; conditions: plasma
[2] = target: C-X-C chemokine receptor type 2 (Homo sapiens) (UniProt P25025); assay: Antagonist activity at CXCR2 (unknown origin) at 10 uM relative to control
C-X-C chemokine receptor type 2 (Homo sapiens), sequence (P25025 whole entry): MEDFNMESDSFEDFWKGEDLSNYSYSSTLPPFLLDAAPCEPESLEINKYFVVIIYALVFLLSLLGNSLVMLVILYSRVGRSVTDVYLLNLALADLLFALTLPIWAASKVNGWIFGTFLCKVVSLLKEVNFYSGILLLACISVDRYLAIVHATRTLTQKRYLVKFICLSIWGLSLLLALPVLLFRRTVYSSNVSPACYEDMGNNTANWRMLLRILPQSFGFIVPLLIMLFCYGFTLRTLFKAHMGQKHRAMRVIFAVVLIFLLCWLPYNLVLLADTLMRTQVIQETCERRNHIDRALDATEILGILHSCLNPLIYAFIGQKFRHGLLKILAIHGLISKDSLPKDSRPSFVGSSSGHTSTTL

[3] = target: C-X-C chemokine receptor type 2 (Homo sapiens) (UniProt P25025); assay: Agonist activity at CXCR2 (unknown origin) at 12.5 uM relative to control
[4] = Cmax in Sprague-Dawley rat at 10 mg/kg, po by LC-MS/MS analysis; type: ADME, organism-based; design: dose 10 mg/kg, route oral; conditions: in vivo
[5] = target: 5-hydroxytryptamine receptor 2C (Homo sapiens) (UniProt P28335); assay: Agonist activity at 5HT2C receptor (unknown origin) at 12.5 uM relative to control
5-hydroxytryptamine receptor 2C (Homo sapiens), sequence (P28335 whole entry): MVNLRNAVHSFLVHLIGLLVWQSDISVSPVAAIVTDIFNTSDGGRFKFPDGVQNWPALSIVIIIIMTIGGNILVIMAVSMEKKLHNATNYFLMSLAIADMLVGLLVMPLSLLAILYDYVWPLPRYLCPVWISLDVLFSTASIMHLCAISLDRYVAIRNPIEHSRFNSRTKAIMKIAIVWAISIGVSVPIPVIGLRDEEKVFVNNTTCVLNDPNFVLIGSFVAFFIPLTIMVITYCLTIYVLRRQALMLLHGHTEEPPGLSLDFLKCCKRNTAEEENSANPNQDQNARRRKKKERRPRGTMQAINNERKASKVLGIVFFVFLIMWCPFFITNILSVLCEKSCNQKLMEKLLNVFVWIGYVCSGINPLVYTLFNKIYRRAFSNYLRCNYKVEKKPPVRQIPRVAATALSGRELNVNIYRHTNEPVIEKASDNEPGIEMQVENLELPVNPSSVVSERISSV

[6] = target: CYP2C19 (Homo sapiens, UniProt P33261); assay: Inhibition of recombinant human CYP2C19 assessed as remaining activity at 10 uM preincubated for 5 mins followed by substrate and NADP addition measured after 20 mins by fluorescence assay relative to control; type: ADME; conditions: read-out: Activity
CYP2C19, sequence (P33261 whole entry): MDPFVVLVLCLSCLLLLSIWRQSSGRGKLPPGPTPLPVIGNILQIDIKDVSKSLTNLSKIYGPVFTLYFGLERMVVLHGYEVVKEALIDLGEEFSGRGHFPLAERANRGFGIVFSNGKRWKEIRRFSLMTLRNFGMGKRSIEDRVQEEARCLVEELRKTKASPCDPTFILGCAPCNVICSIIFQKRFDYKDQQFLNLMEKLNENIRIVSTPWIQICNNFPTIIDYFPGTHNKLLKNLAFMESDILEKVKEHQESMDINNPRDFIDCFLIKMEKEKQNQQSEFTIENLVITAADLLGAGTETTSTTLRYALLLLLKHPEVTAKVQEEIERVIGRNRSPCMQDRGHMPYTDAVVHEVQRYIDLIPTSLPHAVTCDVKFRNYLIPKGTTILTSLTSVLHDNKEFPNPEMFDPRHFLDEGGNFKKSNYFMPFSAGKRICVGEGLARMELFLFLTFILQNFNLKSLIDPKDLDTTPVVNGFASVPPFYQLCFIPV

[7] = target: T1, Metabotropic glutamate receptor 1 (Homo sapiens, UniProt Q13255); assay: Agonist activity at mGlu1 receptor (unknown origin) at 12.5 uM relative to control
T1 sequence (Q13255 19-1194 limits assumed): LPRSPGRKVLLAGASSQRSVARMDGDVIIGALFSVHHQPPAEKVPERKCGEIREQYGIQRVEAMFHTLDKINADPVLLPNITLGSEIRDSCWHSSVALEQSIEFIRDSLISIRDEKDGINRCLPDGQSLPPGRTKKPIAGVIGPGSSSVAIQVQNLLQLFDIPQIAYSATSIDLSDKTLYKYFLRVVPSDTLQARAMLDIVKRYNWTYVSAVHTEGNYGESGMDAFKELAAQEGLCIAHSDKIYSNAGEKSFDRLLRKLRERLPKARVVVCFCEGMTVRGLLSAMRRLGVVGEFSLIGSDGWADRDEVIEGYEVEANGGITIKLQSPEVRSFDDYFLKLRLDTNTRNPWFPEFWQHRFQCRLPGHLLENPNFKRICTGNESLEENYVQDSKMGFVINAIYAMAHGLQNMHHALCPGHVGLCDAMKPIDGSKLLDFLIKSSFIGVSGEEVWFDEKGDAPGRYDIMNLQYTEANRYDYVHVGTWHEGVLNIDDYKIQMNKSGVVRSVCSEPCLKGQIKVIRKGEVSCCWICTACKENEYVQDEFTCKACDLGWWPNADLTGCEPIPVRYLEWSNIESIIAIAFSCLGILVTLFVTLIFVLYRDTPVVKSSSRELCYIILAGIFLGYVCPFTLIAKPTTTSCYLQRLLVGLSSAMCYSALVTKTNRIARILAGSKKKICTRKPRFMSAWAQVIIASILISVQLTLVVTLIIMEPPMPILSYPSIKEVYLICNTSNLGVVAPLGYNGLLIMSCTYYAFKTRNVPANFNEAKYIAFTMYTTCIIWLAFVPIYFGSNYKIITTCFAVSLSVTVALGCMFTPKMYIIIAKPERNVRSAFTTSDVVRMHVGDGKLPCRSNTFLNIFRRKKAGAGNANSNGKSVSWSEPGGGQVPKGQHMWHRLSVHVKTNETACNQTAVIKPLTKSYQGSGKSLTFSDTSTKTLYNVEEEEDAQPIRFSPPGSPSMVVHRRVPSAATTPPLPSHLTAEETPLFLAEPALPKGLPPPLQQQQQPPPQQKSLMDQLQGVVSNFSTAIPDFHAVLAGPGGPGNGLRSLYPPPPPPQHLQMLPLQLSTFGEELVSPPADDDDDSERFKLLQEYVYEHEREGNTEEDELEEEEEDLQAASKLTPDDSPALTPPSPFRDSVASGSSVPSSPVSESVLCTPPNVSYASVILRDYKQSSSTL

[8] = Terminal half life in Sprague-Dawley rat at 10 mg/kg, po by LC-MS/MS analysis; type: ADME, organism-based; design: dose 10 mg/kg, route oral; conditions: in vivo, read-out: beta t1/2
[9] = Plasma concentration in Sprague-Dawley rat at 10 mg/kg, iv measured at 2 hrs by LC-MS/MS analysis; type: ADME, organism-based; design: dose 10 mg/kg, route intravenous
[10] = target: C-C chemokine receptor type 4 (Homo sapiens) (UniProt P51679); assay: Agonist activity at CCR4 (unknown origin) at 12.5 uM relative to control
C-C chemokine receptor type 4 (Homo sapiens), sequence (P51679 whole entry): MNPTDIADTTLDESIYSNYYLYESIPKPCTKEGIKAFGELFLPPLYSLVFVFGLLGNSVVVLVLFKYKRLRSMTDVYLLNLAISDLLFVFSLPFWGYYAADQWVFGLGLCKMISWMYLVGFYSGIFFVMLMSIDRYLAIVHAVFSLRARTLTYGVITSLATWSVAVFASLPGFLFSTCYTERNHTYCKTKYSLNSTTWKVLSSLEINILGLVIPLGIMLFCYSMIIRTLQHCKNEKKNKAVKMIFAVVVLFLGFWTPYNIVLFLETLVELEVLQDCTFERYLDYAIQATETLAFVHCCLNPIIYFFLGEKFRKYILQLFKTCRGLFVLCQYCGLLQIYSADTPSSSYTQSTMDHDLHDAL

[11] = tested on: Rattus norvegicus; assay: Analgesic activity in rat spinal nerve ligation model of neuropathic pain assessed as recovery from mechanical allodynia at 100 mg/kg, po administered on day 14 post ligation surgery measured after 3 hrs relative to control; type: functional
[12] = target: Delta-type opioid receptor (Homo sapiens) (UniProt P41143); assay: Antagonist activity at OPRD1 receptor (unknown origin) at 10 uM relative to control
Delta-type opioid receptor (Homo sapiens), sequence (P41143 whole entry): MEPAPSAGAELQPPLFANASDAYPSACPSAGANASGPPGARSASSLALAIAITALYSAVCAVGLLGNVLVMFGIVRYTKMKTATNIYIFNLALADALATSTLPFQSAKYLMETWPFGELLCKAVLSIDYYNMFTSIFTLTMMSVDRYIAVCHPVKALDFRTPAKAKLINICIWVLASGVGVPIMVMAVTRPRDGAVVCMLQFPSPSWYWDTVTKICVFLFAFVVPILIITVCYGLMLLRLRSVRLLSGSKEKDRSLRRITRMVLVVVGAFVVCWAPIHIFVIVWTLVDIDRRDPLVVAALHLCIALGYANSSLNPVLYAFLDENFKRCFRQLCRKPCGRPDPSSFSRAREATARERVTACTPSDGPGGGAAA

[13] = target: C-C chemokine receptor type 5 (Homo sapiens) (UniProt P51681); assay: Agonist activity at CCR5 (unknown origin) at 12.5 uM relative to control
C-C chemokine receptor type 5 (Homo sapiens), sequence (P51681 whole entry, looked up): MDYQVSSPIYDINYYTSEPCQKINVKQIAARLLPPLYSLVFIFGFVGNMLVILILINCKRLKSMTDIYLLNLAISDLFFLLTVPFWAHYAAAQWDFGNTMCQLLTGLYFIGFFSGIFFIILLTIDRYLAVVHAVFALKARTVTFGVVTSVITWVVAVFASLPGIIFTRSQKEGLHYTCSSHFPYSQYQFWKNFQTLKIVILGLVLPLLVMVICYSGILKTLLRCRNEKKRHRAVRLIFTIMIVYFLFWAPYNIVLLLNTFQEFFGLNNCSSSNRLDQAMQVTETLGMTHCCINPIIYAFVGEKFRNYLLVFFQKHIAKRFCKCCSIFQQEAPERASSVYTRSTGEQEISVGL

[14] = target: T1, Metabotropic glutamate receptor 1; assay: Antagonist activity at human mGluR1 expressed in human Chem-3 cells assessed as inhibition of L-glutamate-induced calcium release at 10 uM by calcium-5 reagent-based fluorescence assay relative to control; type: functional, cell-based
[15] = target: Muscarinic acetylcholine receptor M5 (Homo sapiens) (UniProt P08912); assay: Agonist activity at M5 receptor (unknown origin) at 12.5 uM relative to control
[16] = target: CYP2C9 (Homo sapiens, UniProt P11712); assay: Inhibition of recombinant human CYP2C9 assessed as remaining activity at 10 uM preincubated for 5 mins followed by substrate and NADP addition measured after 20 mins by fluorescence assay relative to control; type: ADME; conditions: read-out: Activity
CYP2C9, sequence (P11712 whole entry): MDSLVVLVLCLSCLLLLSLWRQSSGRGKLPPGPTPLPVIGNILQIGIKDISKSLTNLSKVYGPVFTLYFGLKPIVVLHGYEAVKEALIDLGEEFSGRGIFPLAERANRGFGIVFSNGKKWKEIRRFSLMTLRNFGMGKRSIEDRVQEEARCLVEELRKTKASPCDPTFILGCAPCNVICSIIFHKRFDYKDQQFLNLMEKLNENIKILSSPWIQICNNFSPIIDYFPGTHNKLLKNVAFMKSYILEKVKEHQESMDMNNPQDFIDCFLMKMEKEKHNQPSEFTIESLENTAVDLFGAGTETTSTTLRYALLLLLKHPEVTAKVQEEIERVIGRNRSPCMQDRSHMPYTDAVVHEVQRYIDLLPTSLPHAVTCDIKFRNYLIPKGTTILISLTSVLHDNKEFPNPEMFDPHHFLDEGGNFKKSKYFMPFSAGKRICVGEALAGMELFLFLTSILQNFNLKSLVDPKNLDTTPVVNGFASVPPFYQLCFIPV

[17] = target: Alpha-1A adrenergic receptor (Homo sapiens) (UniProt P35348); assay: Antagonist activity at ADRA1A (unknown origin) at 10 uM relative to control
[18] = target: C-X-C chemokine receptor type 5 (Homo sapiens) (UniProt P32302); assay: Agonist activity at CXCR5 (unknown origin) at 12.5 uM relative to control
C-X-C chemokine receptor type 5 (Homo sapiens), sequence (P32302 whole entry): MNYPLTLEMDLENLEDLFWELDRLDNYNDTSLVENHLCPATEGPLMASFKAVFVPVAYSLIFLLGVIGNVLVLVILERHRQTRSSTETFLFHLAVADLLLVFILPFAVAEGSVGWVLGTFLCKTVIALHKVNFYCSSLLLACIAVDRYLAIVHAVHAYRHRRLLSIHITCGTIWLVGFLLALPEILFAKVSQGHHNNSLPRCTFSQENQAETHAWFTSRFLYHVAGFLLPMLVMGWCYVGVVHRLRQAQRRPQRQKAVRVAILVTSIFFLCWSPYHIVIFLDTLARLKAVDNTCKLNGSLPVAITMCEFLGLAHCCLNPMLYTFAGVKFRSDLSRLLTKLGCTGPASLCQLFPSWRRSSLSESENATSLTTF

[19] = target: T2, CYP1A2 (Homo sapiens, UniProt P05177); assay: Inhibition of recombinant human CYP1A2 assessed as remaining activity at 10 uM preincubated for 5 mins followed by substrate and NADP addition measured after 20 mins by fluorescence assay relative to control; type: ADME; conditions: read-out: Activity
T2 sequence (P05177 whole entry): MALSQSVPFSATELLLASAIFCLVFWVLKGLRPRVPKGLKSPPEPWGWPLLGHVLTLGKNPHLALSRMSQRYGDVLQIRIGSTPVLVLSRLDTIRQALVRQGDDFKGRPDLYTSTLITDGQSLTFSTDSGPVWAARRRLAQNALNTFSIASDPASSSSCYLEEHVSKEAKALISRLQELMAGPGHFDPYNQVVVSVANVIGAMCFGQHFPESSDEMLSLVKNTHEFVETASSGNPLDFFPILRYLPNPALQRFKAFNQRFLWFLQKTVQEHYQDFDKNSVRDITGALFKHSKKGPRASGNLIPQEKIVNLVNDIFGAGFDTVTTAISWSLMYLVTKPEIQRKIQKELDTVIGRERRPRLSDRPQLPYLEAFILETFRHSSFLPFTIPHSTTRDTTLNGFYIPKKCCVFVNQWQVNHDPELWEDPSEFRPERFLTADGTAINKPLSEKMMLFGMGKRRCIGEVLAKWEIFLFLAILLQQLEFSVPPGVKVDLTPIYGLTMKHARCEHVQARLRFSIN

[20] = target: Cannabinoid receptor 1 (Homo sapiens) (UniProt P21554); assay: Agonist activity at CB1 receptor (unknown origin) at 12.5 uM relative to control
Cannabinoid receptor 1 (Homo sapiens), sequence (P21554 whole entry): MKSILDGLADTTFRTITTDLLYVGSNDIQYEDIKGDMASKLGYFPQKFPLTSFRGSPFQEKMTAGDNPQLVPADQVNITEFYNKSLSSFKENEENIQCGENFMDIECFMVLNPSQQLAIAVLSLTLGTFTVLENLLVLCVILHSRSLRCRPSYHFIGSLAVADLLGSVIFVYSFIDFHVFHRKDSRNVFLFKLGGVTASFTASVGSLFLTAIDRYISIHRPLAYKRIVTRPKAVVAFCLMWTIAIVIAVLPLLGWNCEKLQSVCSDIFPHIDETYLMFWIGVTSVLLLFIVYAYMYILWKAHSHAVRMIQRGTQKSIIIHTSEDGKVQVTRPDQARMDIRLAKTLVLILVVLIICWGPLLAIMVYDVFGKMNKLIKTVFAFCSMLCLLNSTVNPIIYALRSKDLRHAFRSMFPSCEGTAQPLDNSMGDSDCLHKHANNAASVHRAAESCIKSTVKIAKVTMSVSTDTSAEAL

[21] = Ratio of drug level in brain to plasma in Sprague-Dawley rat at 10 mg/kg, iv measured at 2 hrs by LC-MS/MS analysis; type: ADME, organism-based; design: dose 10 mg/kg, route intravenous; conditions: read-out: BPR
[22] = target: Cannabinoid receptor 1 (Homo sapiens) (UniProt P21554); assay: Antagonist activity at CB1 receptor (unknown origin) at 10 uM relative to control

AUC(0-inf) [1]: 4250 ng·h/mL
inhibition [2]: -4.6%
Activity [3]: -0.9%
Cmax [4]: 1410 ng/mL
Activity [5]: -0.3%
activity at 20 min, 10 µM [6]: 14.2%
Activity [7]: -0.2%
half-life [8]: 1.48 h
concentration at 2 h [9]: 1240 ng/mL
Activity [10]: -2.3%
inhibition [12]: 3.8%
Activity [13]: -0.6%
inhibition [14]: 71.2%
Activity [15]: 0.9%
activity at 20 min, 10 µM [16]: 6.77%
inhibition [17]: 9.2%
Activity [18]: -2.9%
activity at 20 min, 10 µM [19]: 72.7%
Activity [20]: 0.3%
Kp at 2 h [21]: 0.14
inhibition [22]: -2.8%
SMILES: Cc1cc(C(=O)N2CCc3c(sc(NCc4ccccc4)c3C#N)C2)[nH]n1
Activity [11]: 60%
